Paper PMC10924921, “Mi-2β promotes immune evasion in melanoma by activating EZH2 methylation” (Nature Communications, 2024)

Legend:
Test in all cases: biochemical
Parameters in all cases: KINOMEscan active-site competition binding panel (468 kinase assays), per cent of control at 1000 nM
Details in all cases: KINOMEscan per cent of control (binding competition); read-out: Percent Control
[1] = target: AAK1 (Homo sapiens, UniProt Q2M2I8)
Text: (§1) Figure S7 / Percent Control

[2] = target: T1, CDC2L1 (Homo sapiens, UniProt P21127)
T1 construct: gene CDK11B
Text: as §1

[3] = target: CDK4 (Homo sapiens, UniProt P11802)
Text: as §1

[4] = target: EGFR(L747-E749del, A750P) (Homo sapiens, UniProt P00533, A750P/DEL747-749)
Text: as §1

[5] = target: EGFR(L747-T751del,Sins) (Homo sapiens, UniProt P00533, DEL747-750/T751S)
Text: as §1

[6] = target: ERBB4 (Homo sapiens, UniProt Q15303)
Text: as §1

[7] = target: FER (Homo sapiens, UniProt P16591)
Text: as §1

[8] = target: T2, ICK (Homo sapiens, UniProt Q9UPZ9)
T2 construct: gene CILK1
Text: as §1

[9] = target: IGF1R (Homo sapiens, UniProt P08069)
Text: as §1

[10] = target: IRAK3 (Homo sapiens, UniProt Q9Y616)
Text: as §1

[11] = target: T3, LKB1 (Homo sapiens, UniProt Q15831)
T3 construct: gene STK11
Text: as §1

[12] = target: LYN (Homo sapiens, UniProt P07948)
Text: as §1

[13] = target: MAP3K1 (Homo sapiens, UniProt Q13233)
Text: as §1

[14] = target: MAP3K15 (Homo sapiens, UniProt Q6ZN16)
Text: as §1

[15] = target: MAP3K3 (Homo sapiens, UniProt Q99759)
Text: as §1

[16] = target: T4, MST2 (Homo sapiens, UniProt Q13188)
T4 construct: gene STK3
Text: as §1

[17] = target: PHKG2 (Homo sapiens, UniProt P15735)
Text: as §1

[18] = target: PIK3CA(E542K) (Homo sapiens, UniProt P42336, E542K)
Text: as §1

[19] = target: T5, PKAC-alpha (Homo sapiens, UniProt P17612)
T5 construct: gene PRKACA
Text: as §1

[20] = target: T6, PRP4 (Homo sapiens, UniProt Q13523)
T6 construct: gene PRPF4B
Text: as §1

[21] = target: T7, RIPK5 (Homo sapiens, UniProt Q6XUX3)
T7 construct: gene DSTYK
Text: as §1

[22] = target: T8, RSK1(Kin.Dom.2-C-terminal) (Homo sapiens, UniProt Q15418)
T8 construct: gene RPS6KA1; Kin.Dom.2-C-terminal
Text: as §1

[23] = target: SGK2 (Homo sapiens, UniProt Q9HBY8)
Text: as §1

[24] = target: SRPK2 (Homo sapiens, UniProt P78362)
Text: as §1

T3 sequence (Q15831 whole entry): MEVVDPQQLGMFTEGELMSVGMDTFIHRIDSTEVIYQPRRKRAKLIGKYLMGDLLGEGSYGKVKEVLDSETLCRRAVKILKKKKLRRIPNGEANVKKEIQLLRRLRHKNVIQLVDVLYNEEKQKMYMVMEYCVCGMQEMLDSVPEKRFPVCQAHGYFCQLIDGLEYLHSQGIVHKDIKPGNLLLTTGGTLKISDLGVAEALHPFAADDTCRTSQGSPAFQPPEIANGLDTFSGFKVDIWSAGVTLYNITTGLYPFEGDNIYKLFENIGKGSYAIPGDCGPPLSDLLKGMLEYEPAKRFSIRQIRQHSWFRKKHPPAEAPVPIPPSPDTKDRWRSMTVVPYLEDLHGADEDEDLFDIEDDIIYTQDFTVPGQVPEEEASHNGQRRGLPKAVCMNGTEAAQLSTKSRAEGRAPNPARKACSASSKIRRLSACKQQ
IGF1R, sequence (P08069 whole entry): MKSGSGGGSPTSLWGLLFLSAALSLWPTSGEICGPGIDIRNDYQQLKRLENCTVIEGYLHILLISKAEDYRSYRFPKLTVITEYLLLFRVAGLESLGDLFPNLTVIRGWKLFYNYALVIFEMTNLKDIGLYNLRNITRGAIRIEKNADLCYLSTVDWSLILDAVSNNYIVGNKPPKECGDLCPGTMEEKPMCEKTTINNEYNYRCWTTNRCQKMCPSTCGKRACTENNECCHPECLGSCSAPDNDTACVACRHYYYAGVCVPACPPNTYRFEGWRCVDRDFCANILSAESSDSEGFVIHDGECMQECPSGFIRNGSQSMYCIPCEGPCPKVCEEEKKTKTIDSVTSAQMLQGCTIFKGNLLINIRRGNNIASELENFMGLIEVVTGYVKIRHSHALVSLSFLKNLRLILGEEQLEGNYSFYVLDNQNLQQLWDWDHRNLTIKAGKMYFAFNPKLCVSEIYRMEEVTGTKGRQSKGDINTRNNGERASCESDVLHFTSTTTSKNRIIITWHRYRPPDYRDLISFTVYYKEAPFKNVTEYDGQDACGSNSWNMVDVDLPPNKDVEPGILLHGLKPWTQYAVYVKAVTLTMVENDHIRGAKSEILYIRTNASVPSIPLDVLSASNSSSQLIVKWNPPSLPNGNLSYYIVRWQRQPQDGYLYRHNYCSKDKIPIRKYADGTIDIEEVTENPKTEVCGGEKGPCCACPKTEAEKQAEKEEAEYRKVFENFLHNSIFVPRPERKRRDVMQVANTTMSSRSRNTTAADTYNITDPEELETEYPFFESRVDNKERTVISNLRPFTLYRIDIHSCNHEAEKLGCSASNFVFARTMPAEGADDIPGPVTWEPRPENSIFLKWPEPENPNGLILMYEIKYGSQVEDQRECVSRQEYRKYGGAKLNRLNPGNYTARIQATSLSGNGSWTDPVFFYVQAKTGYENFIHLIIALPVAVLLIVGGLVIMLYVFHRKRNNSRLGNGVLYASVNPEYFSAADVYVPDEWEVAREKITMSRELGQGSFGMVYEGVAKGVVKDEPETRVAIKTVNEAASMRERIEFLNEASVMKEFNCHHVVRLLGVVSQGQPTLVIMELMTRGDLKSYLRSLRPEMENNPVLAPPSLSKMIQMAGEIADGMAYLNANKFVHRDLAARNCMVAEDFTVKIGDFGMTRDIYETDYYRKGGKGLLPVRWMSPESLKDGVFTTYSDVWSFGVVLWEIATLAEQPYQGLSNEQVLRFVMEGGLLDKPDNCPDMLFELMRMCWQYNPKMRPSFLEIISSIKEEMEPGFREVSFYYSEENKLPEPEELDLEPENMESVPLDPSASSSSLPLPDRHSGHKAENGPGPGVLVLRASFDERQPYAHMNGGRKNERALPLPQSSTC
T7 sequence (Q6XUX3 whole entry): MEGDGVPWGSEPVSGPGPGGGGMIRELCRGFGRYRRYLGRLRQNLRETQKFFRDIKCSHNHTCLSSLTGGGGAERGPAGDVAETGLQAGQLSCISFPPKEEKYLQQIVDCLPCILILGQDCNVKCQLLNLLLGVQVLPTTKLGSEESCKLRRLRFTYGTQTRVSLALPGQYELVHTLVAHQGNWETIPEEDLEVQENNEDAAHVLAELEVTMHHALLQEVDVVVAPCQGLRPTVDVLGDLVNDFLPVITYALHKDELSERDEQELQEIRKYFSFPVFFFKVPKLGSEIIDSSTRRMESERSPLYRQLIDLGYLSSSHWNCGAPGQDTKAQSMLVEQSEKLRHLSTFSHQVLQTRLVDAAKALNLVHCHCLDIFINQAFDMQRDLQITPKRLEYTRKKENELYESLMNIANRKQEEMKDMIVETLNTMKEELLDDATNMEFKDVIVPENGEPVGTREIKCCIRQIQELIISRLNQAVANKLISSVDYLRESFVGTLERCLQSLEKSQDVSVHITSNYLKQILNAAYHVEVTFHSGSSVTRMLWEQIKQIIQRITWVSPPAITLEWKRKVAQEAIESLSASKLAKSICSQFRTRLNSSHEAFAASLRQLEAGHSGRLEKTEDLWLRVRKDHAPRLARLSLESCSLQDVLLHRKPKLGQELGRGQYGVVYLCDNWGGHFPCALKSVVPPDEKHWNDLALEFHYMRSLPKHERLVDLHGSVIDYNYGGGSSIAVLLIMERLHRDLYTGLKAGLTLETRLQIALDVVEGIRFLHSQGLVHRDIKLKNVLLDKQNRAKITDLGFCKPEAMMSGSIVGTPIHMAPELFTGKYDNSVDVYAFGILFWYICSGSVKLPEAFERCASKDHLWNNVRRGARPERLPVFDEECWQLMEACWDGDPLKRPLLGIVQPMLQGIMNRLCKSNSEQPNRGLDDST
EGFR(L747-T751del,Sins), sequence (P00533 with tags, fused parts or gaps DEL747-750/T751S): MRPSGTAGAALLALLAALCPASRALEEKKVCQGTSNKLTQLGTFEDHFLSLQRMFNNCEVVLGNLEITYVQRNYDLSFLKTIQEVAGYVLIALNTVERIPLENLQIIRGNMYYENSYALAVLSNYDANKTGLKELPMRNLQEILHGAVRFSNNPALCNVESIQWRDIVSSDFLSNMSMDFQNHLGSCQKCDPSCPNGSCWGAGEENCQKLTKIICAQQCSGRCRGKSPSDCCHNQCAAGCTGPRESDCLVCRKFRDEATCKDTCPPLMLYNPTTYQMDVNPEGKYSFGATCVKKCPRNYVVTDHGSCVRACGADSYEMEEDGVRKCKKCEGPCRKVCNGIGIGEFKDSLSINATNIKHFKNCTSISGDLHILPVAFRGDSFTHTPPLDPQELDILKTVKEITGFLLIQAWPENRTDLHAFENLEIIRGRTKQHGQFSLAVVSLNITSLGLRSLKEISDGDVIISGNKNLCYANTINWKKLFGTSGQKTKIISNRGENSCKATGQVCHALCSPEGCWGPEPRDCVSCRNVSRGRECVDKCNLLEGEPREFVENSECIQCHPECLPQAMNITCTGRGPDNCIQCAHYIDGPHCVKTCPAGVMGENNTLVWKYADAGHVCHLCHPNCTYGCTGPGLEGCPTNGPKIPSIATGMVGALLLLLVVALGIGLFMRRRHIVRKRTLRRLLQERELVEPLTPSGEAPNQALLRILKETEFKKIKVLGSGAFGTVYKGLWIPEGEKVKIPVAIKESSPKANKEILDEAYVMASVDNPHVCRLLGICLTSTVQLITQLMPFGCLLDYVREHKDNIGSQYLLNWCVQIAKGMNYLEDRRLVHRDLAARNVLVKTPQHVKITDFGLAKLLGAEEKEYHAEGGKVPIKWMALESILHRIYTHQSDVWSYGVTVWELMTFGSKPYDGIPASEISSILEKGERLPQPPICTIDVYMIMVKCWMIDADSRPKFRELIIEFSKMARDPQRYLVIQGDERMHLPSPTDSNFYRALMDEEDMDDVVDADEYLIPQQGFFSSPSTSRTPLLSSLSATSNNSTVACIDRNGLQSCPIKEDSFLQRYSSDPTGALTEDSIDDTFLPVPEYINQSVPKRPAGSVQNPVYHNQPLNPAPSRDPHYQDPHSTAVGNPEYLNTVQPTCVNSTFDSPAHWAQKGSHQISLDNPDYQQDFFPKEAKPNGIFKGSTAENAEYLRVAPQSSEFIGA
T1 sequence (P21127 whole entry): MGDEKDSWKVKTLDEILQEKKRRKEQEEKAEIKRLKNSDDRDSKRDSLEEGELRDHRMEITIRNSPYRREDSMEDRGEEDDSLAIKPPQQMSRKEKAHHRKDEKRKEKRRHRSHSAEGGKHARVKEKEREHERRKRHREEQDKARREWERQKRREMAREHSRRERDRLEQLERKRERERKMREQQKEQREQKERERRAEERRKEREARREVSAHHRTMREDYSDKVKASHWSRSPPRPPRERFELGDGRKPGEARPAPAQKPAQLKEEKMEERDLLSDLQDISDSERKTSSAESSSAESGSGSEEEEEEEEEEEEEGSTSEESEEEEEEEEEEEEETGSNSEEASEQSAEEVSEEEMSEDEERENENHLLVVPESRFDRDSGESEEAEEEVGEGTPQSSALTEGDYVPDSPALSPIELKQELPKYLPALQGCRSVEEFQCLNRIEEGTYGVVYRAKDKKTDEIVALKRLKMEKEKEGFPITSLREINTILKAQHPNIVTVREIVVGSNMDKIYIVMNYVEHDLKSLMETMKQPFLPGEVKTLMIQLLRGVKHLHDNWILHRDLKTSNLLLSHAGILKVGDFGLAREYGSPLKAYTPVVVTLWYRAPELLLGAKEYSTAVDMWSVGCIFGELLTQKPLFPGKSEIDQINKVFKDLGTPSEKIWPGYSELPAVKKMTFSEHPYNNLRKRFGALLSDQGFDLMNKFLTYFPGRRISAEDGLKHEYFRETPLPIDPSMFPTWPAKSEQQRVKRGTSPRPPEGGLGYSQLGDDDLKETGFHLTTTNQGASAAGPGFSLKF
CDK4, sequence (P11802 whole entry): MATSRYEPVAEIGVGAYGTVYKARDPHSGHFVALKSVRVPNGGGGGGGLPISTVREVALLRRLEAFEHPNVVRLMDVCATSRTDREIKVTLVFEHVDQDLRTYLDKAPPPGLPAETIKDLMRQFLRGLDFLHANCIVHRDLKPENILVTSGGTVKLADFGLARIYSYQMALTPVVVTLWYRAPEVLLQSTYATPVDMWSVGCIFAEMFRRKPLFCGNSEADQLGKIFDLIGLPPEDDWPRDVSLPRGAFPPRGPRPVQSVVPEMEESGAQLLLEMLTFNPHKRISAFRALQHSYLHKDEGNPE

Cn1c(=O)[nH]c2ccc(-c3cccc(C(=O)NC4CCn5ccnc5C4)c3)cc21 (stereo not drawn) [Z36-MP5]
remaining binding at 1 µM [1]: 91%
remaining binding at 1 µM [2]: 88%
remaining binding at 1 µM [3]: 62%
remaining binding at 1 µM [4]: 90%
remaining binding at 1 µM [5]: 84%
remaining binding at 1 µM [6]: 96%
remaining binding at 1 µM [7]: 90%
remaining binding at 1 µM [8]: 100%
remaining binding at 1 µM [9]: 97%
remaining binding at 1 µM [10]: 99%
remaining binding at 1 µM [11]: 97%
remaining binding at 1 µM [12]: 77%
remaining binding at 1 µM [13]: 54%
remaining binding at 1 µM [14]: 52%
remaining binding at 1 µM [15]: 55%
remaining binding at 1 µM [16]: 93%
remaining binding at 1 µM [17]: 83%
remaining binding at 1 µM [18]: 70%
remaining binding at 1 µM [19]: 85%
remaining binding at 1 µM [20]: 84%
remaining binding at 1 µM [21]: 54%
remaining binding at 1 µM [22]: 98%
remaining binding at 1 µM [23]: 64%
remaining binding at 1 µM [24]: 63%
